In PubChem BioAssay (NCI) one finds TGI and GI50 data, which are given here for 13 molecules.

Assay in all cases: NCI-60 cell line screen, 48 h
The subject of assay [1] is A549 NSCLC.
Assay [2] deals with HT29 colon.
The subject of assay [3] is UACC-62 melanoma.
Assay [4] deals with COLO 205 colon.
The test system of assay [5] is K-562 leukemia.
Assay [6] deals with NCI-H23 lung.
In assay [7] the test system is SNB-19 CNS.
In assay [8] the test system is KM12 colon.
Assay [9] deals with SK-MEL-2 melanoma.
The test system of assay [10] is MALME-3M melanoma.

Each structure is given as a SMILES string.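 In this assay, cells in 96-well plates receive the compound at five concentrations for 48 hours. Endpoints are linearly interpolated between the surrounding concentrations. At the GI50, growth is halved. TGI marks complete inhibition of growth.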 Bounds are passed on as bounds.

With `COC(=O)[C@@]12C(=O)C=CC(=O)C1C1C(=CC2C)OC2OC3(CCCCC3)OC21` (stereo not given in full), the TGI in [1] was determined as 36.3 µM; in assay [2], 44.9 µM; in assay [3], 29 µM; in assay [4], 28.4 µM; in assay [5], 74.6 µM; in [6], 39.9 µM. Besides, the TGI in assay [7] was found to be 31.9 µM; in assay [8], 36.4 µM; in assay [9], 35.5 µM; in [10], 37.8 µM.
On to `C/C(=N\Nc1ccc(Cl)cn1)c1ccc2ccccc2n1`, for which the GI50 was 4.22 µM in [1]; 5.05 µM in assay [2]; 3250 nM in [3]; 2.98 µM in assay [4]; 3.13 µM in assay [5]; 3.55 µM in [6]. The GI50 in [7] was 3.3 µM; in assay [8], 3.15 µM; in assay [9] it was 6.67 µM; in assay [10], 2.21 µM. For the same molecule, the TGI in assay [1], in [2], in [3], in assay [4], in assay [5] and in assay [6] was over 100 µM in each case. In addition, the TGI in assay [7], in assay [8], in assay [9] and in assay [10] was over 100 µM each time.
As for `COc1cc2c(cc1OCCCCC(=O)Nc1cc3c4ccccc4ccc3c3ccccc13)N=C[C@@H]1CCCN1C2=O`, the GI50 is 27.1 µM in assay [1]; 5.86 µM in assay [2]; 658 nM in assay [3]; 7.65 µM in assay [4]; 1.55 µM in [5]; 20 µM in assay [6]. Besides, the GI50 in [7] is 11.3 µM; in [8], 3.87 µM; in assay [9], 8.4 µM; in assay [10], 3.85 µM. The TGI was 61.3 µM in assay [1]; over 76.2 µM in [2]; 8.24 µM in [3]; over 100 µM in assay [4]; over 38.9 µM in assay [5]; 47.5 µM in [6]. Besides, the TGI in [7] was over 61.7 µM; in assay [8], 18.5 µM; in assay [9] it was 58.8 µM; in [10], 16 µM.
Consider `COc1ccc(C(=O)c2cc(C)c(OC)c(C)c2)cc1OC(=O)CCl`, for which the GI50 in assay [1] is 0.0845 µM; in assay [2], 1.06 µM; in [3] it was 40.2 nM; in assay [4], 0.751 µM; in assay [5], under 0.01 µM; in [6], under 0.0293 µM. The GI50 in assay [7] was under 0.01 µM; in [8], under 0.01 µM; in assay [9] it was under 0.01 µM; in [10], 13.1 µM. Moreover, the TGI in assay [1] was over 100 µM; in assay [2], 14.8 µM; in [3] it was over 100 µM; in assay [4], 18.8 µM; in assay [5], over 100 µM; in [6], over 100 µM. Further, the TGI was over 100 µM in [7], over 65.3 µM in assay [8], over 100 µM in assay [9] and 59.6 µM in assay [10].
As for `CCCC1=C(CC)C(C(=O)Nc2c(C)cccc2C)=NC(S)N1` (stereo not given), the TGI in assay [1], in [2], in assay [3], in [4], in [5] and in assay [6] was over 100 µM each time. The TGI in assay [7], in [8], in assay [9] and in [10] was over 100 µM in each case.
Consider `COc1ccc(C(=O)c2cc(OC)c(OC)c(OC)c2)cc1/C=C/C(=O)c1ccc(F)cc1`, for which the GI50 in assay [1] is 16.5 µM; in assay [2], 2.44 µM; in [3], 2010 nM; in [4] it was 5.18 µM; in assay [5] it was 2.34 µM; in [6], 6.2 µM. For the same molecule, the GI50 in assay [7] is 2.26 µM; in assay [8], 2.79 µM; in [9] it was 9.89 µM; in assay [10], 2.76 µM. Moreover, the TGI in assay [1] was over 100 µM; in assay [2] it was 5.63 µM; in assay [3] it was 5.52 µM; in assay [4], 28.1 µM; in [5], over 100 µM; in assay [6], 31.1 µM. The TGI in [7] was found to be 5.96 µM; in assay [8] it was 8.07 µM; in [9], 38.2 µM; in [10] it was 8.87 µM.
Take `CCCCC(CC)COC(=O)C[N+](C)(C)CCOC(c1ccccc1)c1ccccc1` (stereo not given): the GI50 in [1] was 17.8 µM; in assay [2], 3.55 µM; in assay [3] it was 1670 nM; in assay [4] it was 1.93 µM; in assay [5], 3.23 µM; in [6], 3.77 µM. The GI50 is 1.85 µM in [7], 1.78 µM in [8], 1.95 µM in [9] and 1.49 µM in assay [10]. For the same molecule, the TGI in assay [1] was 38.9 µM; in assay [2], 13.1 µM; in assay [3], 3.16 µM; in assay [4], 4.12 µM; in [5] it was 11.6 µM; in assay [6], 15.9 µM. Further, the TGI is 3.76 µM in [7], 3.44 µM in assay [8], 4.13 µM in assay [9] and 3.09 µM in [10].
Take `COc1ccc(C(=O)c2cc(C)c(OC)c(C)c2)c(OC)c1O`: the GI50 was 0.32 µM in assay [1]; 3.73 µM in assay [2]; 638 nM in [3]; 7.77 µM in assay [4]; 0.0236 µM in assay [5]; 0.0879 µM in assay [6]. In addition, the GI50 is 0.0332 µM in assay [7], under 0.017 µM in assay [8], 0.211 µM in assay [9] and 0.0739 µM in assay [10]. Besides, the TGI in assay [1] was over 100 µM; in [2], over 55.6 µM; in [3], over 100 µM; in [4], 28.4 µM; in assay [5], over 100 µM; in assay [6], over 100 µM. For the same molecule, the TGI in assay [7], in [8], in assay [9] and in [10] was over 100 µM each time.
As to `NS(=O)(=O)c1ccc(-c2ccc3c(NC(=O)C4CC4)n[nH]c3c2)cc1`, the GI50 in assay [1] is over 25 µM; in assay [2], over 25 µM; in [3], over 25000 nM; in assay [4], over 25 µM; in [5] it was over 25 µM; in assay [6], over 25 µM. Further, the GI50 in [7], in [8], in [9] and in [10] was over 25 µM in each case. For the same molecule, the TGI in assay [1], in assay [2], in assay [3], in assay [4], in assay [5] and in assay [6] was over 25 µM throughout. Besides, the TGI in assay [7], in assay [8], in [9] and in [10] was over 25 µM each time.
With `Cc1ccc(N=C/C=C(\Nc2ccc(C)cc2)c2ccc(Cl)cc2)cc1`, the GI50 in assay [1] is 10.5 µM; in assay [2] it was 4 µM; in assay [3], 7310 nM; in assay [4], 7.11 µM; in assay [5], 4.75 µM; in assay [6] it was 11 µM. Further, the GI50 is 17.3 µM in assay [7], 5.36 µM in [8], 29.9 µM in [9] and 9.27 µM in assay [10]. Further, the TGI is 61.1 µM in assay [1]; over 100 µM in assay [2]; 39.8 µM in [3]; over 100 µM in assay [4]; over 100 µM in assay [5]; 32.3 µM in assay [6]. Besides, the TGI was 70.6 µM in assay [7], 46.7 µM in [8], over 100 µM in assay [9] and 48.4 µM in assay [10].
Turning to `CC1=CC(C)(C)N=C2SC(c3ccc(N)cc3)=NN12`, the TGI in assay [1] was over 100 µM; in assay [2], 98.2 µM; in [3], over 100 µM; in assay [4], over 61.2 µM; in [5] it was over 66 µM; in assay [6], over 100 µM. In addition, the TGI in assay [7], in assay [8], in [9] and in [10] was over 100 µM each time.
Regarding `COc1cc(/C=C/c2ccc(OC)c(O)c2)cc(OC)c1`, the TGI in assay [1] turned out to be 33.3 µM; in [2], 32.3 µM; in [3], 15.1 µM; in [4], 59.3 µM; in [5], 8.64 µM; in assay [6] it was 12.5 µM. In addition, the TGI in [7] was 24.1 µM; in [8] it was 28.3 µM; in assay [9], 29.8 µM; in assay [10] it was 38 µM.
As for `C=CCCCCC/C=C\[C@@H](O)C#CC#C/C=C/CO`, the GI50 in assay [1] was over 100 µM; in assay [2] it was over 100 µM; in [3], over 100000 nM; in [4], over 100 µM; in assay [5], 18.5 µM; in [6], 43.6 µM. The GI50 in assay [7] is over 100 µM; in assay [8], 77.5 µM; in assay [9], over 100 µM; in assay [10], over 100 µM. Besides, the TGI was over 100 µM in assay [1]; over 100 µM in assay [2]; over 100 µM in [3]; over 100 µM in assay [4]; 37.5 µM in assay [5]; over 100 µM in [6]. Also, the TGI in [7], in assay [8], in [9] and in [10] was over 100 µM each time.
